# Measurements reported in patent US5346812A, “Teratogen assay” (priority 1992, dated 1994).
# Entries after “also recorded” stand apart in the source; their conditions may differ. Read-outs that look alike come from different tables or passages of the source.
# Experiments:
# [1] = shown in animal experiments; cited from earlier work
# [2] = test system: 23 kDa heat shock protein gene promoter (hsp23-β-galactosidase hybrid gene); test: Drosophila heat shock hybrid gene expression assay (colorimetric beta-galactosidase assay) in primary embryonic cells from transformed flies; conditions: for FOLD INDUCTION OF B-GAL ACTIVITY: Experiment I, strain 700.2 embryonic cells, relative to nontreated cells
# Text: A representative hybrid gene in accordance with the above description includes a 23 kDa heat shock protein gene fragment beginning at the Pst I site 1.5 kb upstream from and extending through the transcription start site and the entire RNA leader region to a Pvu II site at codon 45 of the 23 kDa protein coding sequence, inserted upstream from a truncated (at codon 7 or 8) E. coli β-galactosidase gene. It addition, a 2.4-kb-long segment containing 3' nontranslated and nontranscribed sequences from a D. melanogaster 70 kDa heat shock protein gene is placed downstream from the β-galactosidase gene.
# For the experiments with teratogens described below, only the 700 lines (see Table 2) were used. These lines carry a hybrid gene controlled by a 554 nucleotide-long segment of the 23 kDa heat shock protein gene promoter.
# Preparation of embryos, cultures of primary cells, and incubation with teratogens
# 1. A creamy paste of yeast is placed on a piece of wet filter paper and such coated paper: deposited on 150 mm food plates. Embryos are then collected on these plates for 3 hours (inside a large fly cage). (For additional details, see the appended Materials and Methods section.)
# 2. The plates with the embryos are incubated further for 3.5 hours (embryos will reach the gastrulation stage).
# 3. The filter paper containing yeast is discarded. The plates are flooded with water, the embryos are brushed down, passed through a 1 mm (pore size) mesh and then collected on a 90 μm mesh.
# 4. Embryos are washed extensively with water. Subsequently they are picked up with a spatula and are placed into a solution of 10 ml chlorox/10 ml ethanol (95%). After a brief incubation, the embryos are transferred to a sintered glass funnel attached to a vacuum line and are washed with several volumes of sterile distilled water, No more than 2 minutes should elapse between the first exposure of the embryos to chlorox-ethanol solution and the beginning of the wash steps.
# 5. The embryos are then washed in 6 ml of culture medium. It is important to note that the embryos are not allowed to dry out during the wash procedure.
# 6. The wet embryos are transferred with a blunt spatula into a homogenizer containing 7 ml of culture medium. (Alternatively, they can be washed down into the homogenizer with medium.)
# 7. Three gentle passes are made with the loose fitting pestle.
# 8. Cell aggregates are broken up by repeated pipetting with a 1 ml pipette, and the cell suspension is passed through a 53 μm mesh.
# 9. The filtrate is collected in a 15 ml sterile disposable centrifuge tube and spun at 1800 rpm for 4 minutes (at room temperature).
# 10. The supernatant is decanted, and the cells are washed once more with 4 ml of medium.
# 11. The cells are finally suspended in 4 ml medium by repeated pipetting with a 1 ml pipette and are counted on a hemocytometer.
# 12. The cells are plated in 35 mm dishes at a density of 3.2×10^6cells per 2 ml of medium.
# 13. Forty-five minutes later the medium is removed from each dish, and 2 ml of fresh medium containing the chemical to be tested for teratogenicity is added. The culture is then incubated at 22° C. for 20 hrs. […] The cells are subsequently processed for the β-galactosidase assay (see below).
# 1. Cells in 35 mm dishes are washed once with phosphate-buffered saline and are then transferred to 15 ml centrifuge tubes.
# 2. The cells are collected by centrifugation (clinical centrifuge, 2000 rpm, 5 min) and are taken up in 350 μl of Z buffer (defined below) containing 0.5% of Nonidet NP40. The cells are lysed by repeated pipetting. Lysates are transferred to 1.5 ml Eppendorf tubes.
# 3. After a 5 minute spin (in the Eppendorf centrifuge) the supernatants are transferred to another set of tubes.
# 4. To 200 μl of this extract, 275 μl of substrate solution ONPG (4 mg/ml) in Z-buffer is added. The assays are run with straight as well as with diluted extract samples.
# 5. The reactions are incubated at 37° C. for 30 min.
# [3] = use by pregnant women; cited from earlier work
# small heat shock genes = conditions: ecdysterone added to the medium; Ireland et al. 1982; cited from earlier work
# [4] = test system: 23 kDa heat shock protein gene promoter (hsp23-β-galactosidase hybrid gene) in S3 cells; conditions: following exposure to ecdysterone; Lawson et al. 1985; Mestril et al.; cited from earlier work
# [5] = test system: 23 kDa heat shock protein gene promoter (hsp23-β-galactosidase hybrid gene) in S3 cells; test: Hybrid gene (23 kDa heat shock protein-β-galactosidase) activity in transfected S3 cells; format: cell-based, Drosophila melanogaster; conditions: for E. coli-specific B-galactosidase, + ecdysterone: 3 μM, ELISA
# Text: The Drosophila melanogaster 23 kDa heat shock protein gene has been cloned and characterized by Voellmy et al. (Cell 23:261-270, 1981). Segments containing extensive 5' nontranscribed sequences from the 23 kDa heat shock protein gene, the RNA leader region, and part of the protein-coding region were linked in frame to an E. coli β-galactosidase gene. The resulting constructs encode a hybrid protein with β-galactosidase activity that is made under the control of the linked heat shock gene sequences (Lawson, R., et al., Dev. Biol. […], 1985). These constructs were introduced into Drosophila melanogaster S3 cells (an established cell line) by transfection (Lawson, R., et al., Mol. Gen. Genet. 198:116-124, 1984).
# The construction of 23 kDa heat shock protein-β-galactosidase hybrid genes had been described (Lawson, R., et al., Dev. Biol. 110:321-330, 1985). The structure of a representative construct, p523/35, is shown in FIG. 4 (modified from Mestril, R., et al., EMBO J. 5(7):1667-1673, 1986). […] Hybrid gene activity was assessed in cell extracts both by a colorimetric enzymatic assay and by ELISA using antibodies specific for E. coli β-galactosidase (Lawson, R., et al., Dev. Biol. 110:321-330, 1985).
# Derivatives of this basic construct that contained 23 kDa heat shock gene promoter sequences of different lengths were prepared, and their activity was tested using heat shock in transfected S3 cells (Mestril, R., et al., EMBO J. 4:2971-2976, Mestril, R., et al., EMBO J. 5:1667-1673, 1986).
# A list of the cp20.1 derivatives of hybrid genes with 23 kDA heat shock protein gene promoter segments of different lengths is shown in Table 1. The functionality of the genes was tested in cultured Drosophila melanogaster S3 cells. Transfected cells were either heat-treated (not shown), exposed for one day at 3 μM ecdysterone, or not treated. Levels of β-galactosidase in extracts were measured by the ELISA procedure described in Mestril et al., EMBO J. 5:1667-1673, 1986.
# Levels of Bgalactosidase were measured in cell extracts using the ELISA
# protocol described in Mestril et al., 1986 (Mestril,R., Schiller,P.,
# Amin,J., Klapper,H., Ananthan,J. and Voellmy,R. (1986) EMBO J.
# [6] = Drosophila melanogaster, 20 h, read-out: FOLD INDUCTION OF B-GAL ACTIVITY
# [7] = Drosophila melanogaster, 20 h, read-out: Fold Induction of B-Gal Activity
compound,measurement,setting,value
CC(=O)Oc1ccccc1C(=O)O [ACETYL SALICYCLIC ACID],CLASS (teratogen T / nonteratogen NT),[1],weak T
same,FOLD INDUCTION OF B-GAL ACTIVITY,"[2]; 1.0 mM, 20 hrs",1.5 FOLD
[Cl][Hg][Cl] [Hg Cl2],FOLD INDUCTION OF B-GAL ACTIVITY,"[2]; 0.005 mM, 20 hrs",3 FOLD
[Cl][Cd][Cl] [Cd Cl2],FOLD INDUCTION OF B-GAL ACTIVITY,"[2]; 0.25 mM, 20 hrs",7 FOLD
CC(=O)[C@H]1CC[C@H]2[C@@H]3CCC4=CC(=O)CC[C@]4(C)[C@H]3CC[C@]12C [PROGESTERONE],fold induction at 10 µM,[2]; [6],1
CCO [ETHYL ALCOHOL],fold induction at 160000 µM,[2]; [6],1.2
O=[As](O)(O)O [ARSENATE],FOLD INDUCTION OF B-GAL ACTIVITY,"[2]; 0.2 mM, 20 hrs",8 FOLD
CC1=C(/C=C/C(C)=C/C=C/C(C)=C/C(=O)O)C(C)(C)CCC1 [RETINOIC ACID (ALL TRANS)],fold induction at 50 µM,[2]; [6],5
"O=C1NC(=O)C(c2ccccc2)(c2ccccc2)N1 [DIPHENYLHYDANTOIN, DIPHENYL-HYDANTOIN]",fold induction at 100 µM,[2]; [6],2
Cn1c(=O)c2c(ncn2C)n(C)c1=O [Caffeine],fold induction at 1000 µM,[2]; [7],1.02
CC/C(=C(/CC)c1ccc(O)cc1)c1ccc(O)cc1 [DIETHYL STILBOSTEROL],fold induction at 10 µM,[2]; [6],7
[Pb] [Lead],Fold Induction of B-Gal Activity,"[2]; Experiment II, 2.5 mM, 20 hrs, relative to nontreated cells (see Table 3)",15.78 Fold
same,synthesis of β-galactosidase in primary embryonic cells (in words),[2]; primary embryonic cells from transformed flies,directs the synthesis of β-galactosidase
CN1C(=O)CN=C(c2ccccc2)c2cc(Cl)ccc21 [Valium],fold induction at 1000 µM,[2]; [7],6.5
C[S+](C)[O-] [DIMETHYL SULFOXIDE],fold induction at 1000 µM,[2]; [6],1
O=C1CCC(N2C(=O)c3ccccc3C2=O)C(=O)N1 (stereo not shown) [Thalidomide],babies suffering from phocomelia,[3],"~10,000 babies"
same,synthesis of β-galactosidase in primary embryonic cells (in words),[2],directs the synthesis of β-galactosidase
same,fold induction at 1000 µM,[2]; [7],2.73
CC(C)(O)CC[C@@H](O)[C@](C)(O)[C@H]1CC[C@@]2(O)C3=CC(=O)[C@@H]4C[C@@H](O)[C@@H](O)C[C@]4(C)[C@H]3CC[C@]12C [ecdysterone],activation of the small heat shock genes (in words),small heat shock genes,activation of the genes
same,synthesis of β-galactosidase in transfected S3 cells (in words),[4],produced E. coli-specific β-galactosidase; also recorded: directed the synthesis of β-galactosidase
same,fold induction at 10 µM,[2]; [6],2
same,"E. coli-specific B-galactosidase, + ecdysterone","[5]; 63 bp 5' nontranscribed segment, one day, 0.0 without ecdysterone",0.1
same,"E. coli-specific B-galactosidase, + ecdysterone","[5]; 147 bp 5' nontranscribed segment, one day",0.1
same,"E. coli-specific B-galactosidase, + ecdysterone","[5]; 197 bp 5' nontranscribed segment, one day",0.1
same,"E. coli-specific B-galactosidase, + ecdysterone","[5]; 275 bp 5' nontranscribed segment, one day",0.3
same,"E. coli-specific B-galactosidase, + ecdysterone","[5]; 295 bp 5' nontranscribed segment, one day",0.6
same,"E. coli-specific B-galactosidase, + ecdysterone","[5]; 333 bp 5' nontranscribed segment, one day, 0.0 without ecdysterone",1.0
same,"E. coli-specific B-galactosidase, + ecdysterone","[5]; 363 bp 5' nontranscribed segment, one day",1.1
same,"E. coli-specific B-galactosidase, + ecdysterone","[5]; 379 bp 5' nontranscribed segment, one day, 0.1 without ecdysterone",2.0
same,"E. coli-specific B-galactosidase, + ecdysterone","[5]; 554 bp 5' nontranscribed segment, one day",1.0
same,hybrid gene activity of constructs (in words),"[5]; several constructs, longest promoter segments, 3 μM ecdysterone, one day, inactive in untreated cells",active
Nc1ncn([C@H]2C[C@H](O)[C@@H](CO)O2)c(=O)n1 [5-DEOXY-2' AZACYTIDINE],FOLD INDUCTION OF B-GAL ACTIVITY,"[2]; 0.01 mM, 20 hrs",4 FOLD
O=c1ccc2ccccc2o1 [COUMARIN],fold induction at 1000 µM,[2]; [6],5
same,hybrid gene activity in S3 cells (in words),[5],did not induce hybrid gene activity
